Like-named read-outs stand apart in the source and are kept apart here.
System: Pyricularia oryzae
Type: in vivo
Conditions: root application as in Use Example 2, untreated control 80%

With `CC(NC(=O)C(C#N)C1CC1)c1ccc(Cl)cc1` (centres unmarked) [I.1, N-(4′-Chlorophenyl)ethyl-1-cyclopropyl-1-cyanoacetamide] the “% infestation of leaves after application of an aqueous active compound preparation containing . . . ppm” value (10 ppm) was 20% and the “% infestation of leaves after application of an aqueous active compound preparation containing . . . ppm” value (50 ppm) was 5%.

Reference: patent US6410486B1 (priority 1997, dated 2002)
